This data set can be described thus: Dissolution studies of C21 sodium salt in buffers of different pH. The data set is classed as physicochemical. The conditions noted are these: Zwitterion formed at intermediated pHs; conclusion from experiments (A)-(E). Here is the method:
50.7 mg of C21 sodium salt (Ardena, Riga, Latvia) was added to 900 mL of 0.09M carbonate buffer (pH 8.95) at a temperature of 37±3° C. with stirring. […] After 15 minutes of stirring, 2M acetic acid solution was added dropwise to provide a pH of 4.52. Evolution CO2 was noted. […] After additional stirring for a further 1.5 hours, 1M NaOH was added to increase pH to 6.8.
51.2 mg of C21 sodium salt was added to 900 mL of acetate buffer (pH 4.4) at the same temperature with stirring. […] After stirring for 1 hour, 1M NaOH solution was added dropwise to increase the pH to 7.2.
53.2 mg of C21 sodium salt was added to 900 mL 0.1M of HCl buffer (pH 1.0) at the same temperature with stirring. […] After 20 minutes of stirring, 1M NaOH solution was added dropwise to increase the pH to 4.5.
51.0 mg of C21 sodium salt was added to 900 mL of 0.1M citrate buffer (pH 4.42) at the same temperature with stirring. The added compound formed a thin slurry. It seemed that nothing had dissolved.
50.8 mg of C21 sodium salt was added to 900 mL of an acetate buffer (pH 4.49) at the same temperature. […] After stirring for 1 hour, a 1M NaOH solution was added dropwise to increase the pH to 6.8.

As to `CCCCOC(=O)NS(=O)(=O)c1sc(CC(C)C)cc1-c1ccc(Cn2ccnc2)cc1` [C21, N-butyloxycarbonyl-3-(4-imidazol-1-ylmethylphenyl)-5-iso-butylthiophene-2-sulfonamide], the “solubility of C21's Zwitterion” value is on record as “insoluble”.

For the origin of these results see patent US12121614B2, “Delayed release composition for peroral administration” (VICORE PHARMA AB, priority 2020, dated 2024).
